Reference: patent publication EP2326714B1, “METHOD FOR THE PRODUCTION OF A FEED ADDITIVE FOR THE OXYGEN-INDEPENDENT, ENZYMATIC DECOMPOSITION OF MYCOTOXINS, FEED ADDITIVE, AND USE THEREOF” (Erber Aktiengesellschaft, priority 2008, dated 2010)

Tests used:
[1] = biological target: T1, Fumonisin-Carboxylesterase FumD, Sequenz ID-Nr. 9 (fumD Gen Sequenz ID-Nr. 8), Sphingopyxis sp. Stamm DSM 16254, his-getaggt, in Pichia pastoris exprimiert (Sphingopyxis macrogoltabida, UniProt D2D3B6); experiment: Enzyme kinetics of fumonisin carboxylesterase (Michaelis-Menten, HPLC-MS/MS); format: biochemical; details: substrate FB1; enzyme 0,33 ng/ml; Tris-Cl pH 8,0; 30 °C
T1 construct: His tag; made in house; host or cells: Pichia pastoris (secreted, purified from the culture supernatant)
T1 sequence (D2D3B6 whole entry): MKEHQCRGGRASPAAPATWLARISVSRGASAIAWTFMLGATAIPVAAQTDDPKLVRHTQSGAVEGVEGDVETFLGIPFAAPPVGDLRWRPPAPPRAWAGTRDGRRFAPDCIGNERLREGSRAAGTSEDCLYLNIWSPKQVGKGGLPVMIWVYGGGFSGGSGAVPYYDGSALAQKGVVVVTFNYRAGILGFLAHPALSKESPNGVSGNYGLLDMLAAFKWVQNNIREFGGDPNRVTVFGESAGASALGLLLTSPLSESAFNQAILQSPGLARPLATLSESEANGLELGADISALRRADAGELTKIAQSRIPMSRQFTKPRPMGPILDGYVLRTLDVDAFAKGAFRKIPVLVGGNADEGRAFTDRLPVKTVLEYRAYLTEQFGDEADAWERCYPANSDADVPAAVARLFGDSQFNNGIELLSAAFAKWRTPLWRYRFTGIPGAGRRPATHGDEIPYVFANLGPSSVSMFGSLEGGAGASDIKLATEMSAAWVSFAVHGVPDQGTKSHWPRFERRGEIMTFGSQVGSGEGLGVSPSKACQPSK
Protocol: (§1) Das fumD Gen (Sequenz ID-Nr. 8), welches eine Fumonisin-Carboxylesterase codiert, wurde kloniert und in Pichia pastoris unter Verwendung von Standardverfahren exprimiert. Das his-getaggte Enzym wurde rückgewonnen und aus der überstehenden Lösung der Kultur durch Affinitätschromatographie gereinigt. Die Enzymkonzentration wurde bestimmt und die enzymkinetischen Parameter wurden mit sieben unterschiedlichen Substratkonzentrationen im Bereich zwischen 50 µg bis 25 mg FB1 pro Liter und einer Enzymkonzentration von 0,33 ng/ml bestimmt. Die Reaktionen wurden in 20 mM Tris-Cl (pH 8,0) Puffer mit 0,1 mg/ml Rinderserumalbumin gepuffert und bei 30 °C inkubiert. Proben wurden nach 0, 30, 60 120 und 240 Minuten Inkubation genommen und durch HPLC-MS/MS analysiert. Fumonisin B1 (FB1) und hydrolysiertes Fumonisin B1 wurden quantifiziert basierend auf einer Kalibrierung mit den gereinigten Referenzsubstanzen und einem vollständig ^13C markierten, internen FB1 Standard.
(§2) Fig. 2 zeigt die Michaelis-Menten-Kurve für die Transformation von Fumonisin B1 (FB1) durch Fumonisin-Carboxylesterase FumD, welche bei einer Enzymkonzentration von 0,33 ng/ml in Tris-Cl-Puffer (pH 8,0) bestimmt wurde, wobei anfängliche Enzymgeschwindigkeiten gegen die Substratkonzentration aufgetragen wurden. Die Michaelis-Menten-Kurve zeigt einen Abfall bei höheren Substratkonzentrationen, da die Enzymgeschwindigkeit basierend auf dem Produkt, d.h. hydrolysierter FB1-Bildung berechnet wurde. Da hydrolysiertes FB1 aus FB1 in einer zweistufigen Reaktion über partiell hydrolysiertes FB1 mit lediglich einer Tricarballylsäure-Seitenkette, die zurückbehalten wurde, und einer Seitenkette ausgebildet wird, die abgespalten wurde, war die Endproduktbildung bei hohen Substratkonzentrationen verzögert. Die Michaelis-Menten-Konstante KM wurde als 0,90 µmol/l berechnet, was 650 ppb äquivalent ist, und die Umwandlungszahl war 900 pro Sekunde.

[2] = tested on: Absetzferkel; experiment: Feeding trial with piglets (fumonisin B1 contaminated feed, positive control); format: in vivo, Ferkel (ÖHYB); details: 4 - 5,5 ppm Fumonisin B1 in feed, no enzyme
Text: Der Versuch wurde in einem Versuchsstall mit 12 Buchten für jeweils 10 Tiere durchgeführt. Der Stall war ausgestattet mit Spaltenboden, Schalentränkern und einem computergesteuerten Fütterungssystem. Die Automaten waren entlang der Buchtenwände angeordnet. Das Stallklima wurde täglich automatisch aufgezeichnet und die Temperatur nach den Standardempfehlungen zur Ferkelaufzucht eingestellt.
120 gemischt-geschlechtliche Absetzferkel (Alter: ca. 4 Wochen, durchschnittliches Einstellgewicht 8,21 kg) wurden für diesen Versuch eingesetzt. Jedes Ferkel wurde mit einer Ohrmarke versehen und einzeln gewogen. Die 120 Ferkel wurden auf 12 Buchten zufällig verteilt. Alle Ferkel entstammten dem österreichischen Zuchtprogramm ÖHYB (= (Edelschwein x Landrasse) x Pietrain).
Direkt nach dem Absetzen wurden die Ferkel für 2 Tage mit einem Starterfutter gefüttert, nach dieser Eingewöhnungsphase erfolgte die Umstellung auf das Versuchsfutter. Die Fütterung erfolgte 2-phasig: Absetzphase Tag 1 - 14, Aufzuchtphase Tag 15 - 42. Das Versuchsfutter wurde buchtenindividuell über die Spotmix-Fütterungsanlage gemischt und je nach Anzahl der Ferkel, Gewichtsentwicklung und Futterverzehr zweimal täglich trocken zugeteilt. Wasser stand zur Aufnahme ad libitum zur Verfügung. Die 12 Buchten wurden in vier verschiedene Applikationsgruppen zu je drei Wiederholungen geteilt und erhielten die folgenden Einmischungen ins oben beschriebene Futter: […]

[3] = tested on: CCCC[C@@H](C)[C@@H](OC(=O)C[C@@H](CC(=O)O)C(=O)O)[C@H](C[C@@H](C)C[C@H](O)CCCC[C@@H](O)C[C@H](O)[C@H](C)N)OC(=O)C[C@@H](CC(=O)O)C(=O)O; experiment: Enzyme kinetics of fumonisin carboxylesterase (Michaelis-Menten, HPLC-MS/MS); format: biochemical, Sphingopyxis sp.
Protocol: as §1, §2

Molecule	Umwandlungszahl [1]	Ausfälle ([2]; 30 piglets, 42 days)	Endgewicht (Durchschnitt, kg) ([2]; 30 piglets, 42 days, negative control 26,82)	respiratorische Probleme ([2]; all other groups appeared healthy)	Km ([3]; other: same KM expressed in ppb, pH 8.0, 30.0 °C)	Km ([3]; other: substrate FB1, 50 µg to 25 mg per litre, enzyme 0,33 ng/ml, 20 mM Tris-Cl pH 8,0, 0,1 mg/ml BSA, 30 °C, rate based on formation of hydrolysed FB1)
CCCC[C@@H](C)[C@@H](OC(=O)C[C@@H](CC(=O)O)C(=O)O)[C@H](C[C@@H](C)C[C@H](O)CCCC[C@@H](O)C[C@H](O)[C@H](C)N)OC(=O)C[C@@H](CC(=O)O)C(=O)O [Fumonisin B1]	900 pro Sekunde	1	24,77 kg	bei fast der Hälfte der Tiere respiratorische Probleme beobachtet	–	–
Fumonisin-Carboxylesterase FumD, Sequenz ID-Nr. 9 (fumD Gen Sequenz ID-Nr. 8), Sphingopyxis sp. Stamm DSM 16254, his-getaggt, in Pichia pastoris exprimiert (Sphingopyxis macrogoltabida)	–	–	–	–	650 ppb	0,90 µmol/l
